Test results from US20230174608A1, “Polypeptide Derivative Having Dual Receptor Agonistic Action and Use Thereof” (TIANJIN INSTITUTE OF PHARMACEUTICAL RESEARCH CO., LTD., priority 2020, published 2023).
*1 amine or outer side, *2 acyl side, *3 side chain or, on linkers, in order; H or OH if unused. Where a SMILES comes first, the peptide text is derived from it. Side-chain parts run from the residue outwards. [ ]: non-standard residue; d: D form. The star is where a group is joined. C18 diacid = O=C(O)CCCCCCCCCCCCCCCCC(=O)*; γGlu = O=C(O)[C@H](CCC(=O)[*:2])N[*:1]; Palmitoyl = CCCCCCCCCCCCCCCC(=O)*; AEEA = NCCOCCOCC(=O)O; Aib = CC(C)(N)C(=O)O

Tests used:
[1] = biological target: T1, GLP-1R (Homo sapiens, UniProt P43220); assay: GLP-1 receptor-mediated cAMP production in vitro; type: cell-based; conditions: HEK293 cell line stably expressing GLP-1R
T1 construct: expressed in transfected cells
Protocol: (§1) HEK293 cell line stably expressing GLP-1R or GCGR was used for screening GLP-1R and GCGR agonist.
(§2) Preparation of test sample: each compound was prepared into 100 μM stock solution, and then gradually diluted to working concentrations of 1 μM, 100 nM, 10 nM, 1 nM, 10^−1 nM, 10^−2 nM, 10^−3 nM, and H2O.
(§3) 1) Each compound to be tested was mixed with a serum-free medium (containing 0.1% BSA and 0.5 mM IBMX) to obtain a solution at a concentration 2 times the working concentration.
(§4) 2) The cells were digested, suspended in a serum-free medium (containing 0.5 mM IBMX), counted, and placed in a 384-well plate at a density of 1,000 cells/5 μL/well, then 5 μL of the testing compound was added, and the plate was placed in dark for reaction for 30 min.
(§5) 3) After the reaction was completed, a substrate for detecting cAMP was added, and the plate was placed in dark for reaction at the room temperature for 60 min.
(§6) 4) After the reaction was completed, the plate was placed on the Envision2104 multifunctional microplate reader for detection, and the ratio of optical density (OD) values at 665 nm and 615 nm were read out.

[2] = biological target: T2, GCGR (Homo sapiens, UniProt P47871); assay: GC receptor-mediated cAMP production in vitro; type: cell-based; conditions: HEK293 cell line stably expressing GCGR
T2 construct: expressed in transfected cells
Protocol: as §1, §2, §3, §4, §5, §6

T1 sequence (P43220 24-463, species assumed): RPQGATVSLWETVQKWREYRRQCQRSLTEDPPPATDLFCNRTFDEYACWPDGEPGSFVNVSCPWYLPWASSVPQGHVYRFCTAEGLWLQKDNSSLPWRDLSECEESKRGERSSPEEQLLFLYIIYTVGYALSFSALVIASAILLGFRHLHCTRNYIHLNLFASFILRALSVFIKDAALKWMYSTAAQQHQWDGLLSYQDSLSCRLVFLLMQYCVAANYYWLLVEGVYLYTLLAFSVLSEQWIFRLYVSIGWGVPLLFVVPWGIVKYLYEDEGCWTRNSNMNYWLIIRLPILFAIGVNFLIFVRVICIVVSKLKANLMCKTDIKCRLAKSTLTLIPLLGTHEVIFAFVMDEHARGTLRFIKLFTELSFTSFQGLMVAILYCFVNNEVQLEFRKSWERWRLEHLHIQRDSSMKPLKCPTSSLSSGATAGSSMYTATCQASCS
T2 sequence (P47871 26-477, species assumed): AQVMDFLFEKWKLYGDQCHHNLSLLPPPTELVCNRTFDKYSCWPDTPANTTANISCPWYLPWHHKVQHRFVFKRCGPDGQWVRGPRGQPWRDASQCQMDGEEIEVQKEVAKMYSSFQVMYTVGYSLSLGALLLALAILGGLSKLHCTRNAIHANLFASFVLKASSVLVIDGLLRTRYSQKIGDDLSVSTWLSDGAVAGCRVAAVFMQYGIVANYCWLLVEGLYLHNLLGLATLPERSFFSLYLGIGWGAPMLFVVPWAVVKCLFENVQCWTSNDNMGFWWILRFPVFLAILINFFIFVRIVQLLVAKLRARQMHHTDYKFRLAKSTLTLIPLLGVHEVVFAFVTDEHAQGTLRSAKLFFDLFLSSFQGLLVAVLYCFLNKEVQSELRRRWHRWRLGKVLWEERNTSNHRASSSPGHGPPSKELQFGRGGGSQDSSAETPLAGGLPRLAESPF

EC50 [1] [nM]	EC50 [2] [nM]	SMILES
0.472	6.41	CC[C@H](C)[C@H](NC(=O)[C@H](Cc1ccccc1)NC(=O)[C@H](CCC(=O)O)NC(=O)[C@H](CCCCNC(=O)COCCOCCNC(=O)COCCOCCNC(=O)CC[C@H](NC(=O)CCCCCCCCCCCCCCCCC(=O)O)C(=O)O)NC(=O)[C@H](C)NC(=O)[C@H](C)NC(=O)[C@H](CCCNC(=N)N)NC(=O)[C@H](CCC(=O)O)NC(=O)[C@H](CCC(=O)O)NC(=O)[C@H](CC(C)C)NC(=O)[C@H](Cc1ccc(O)cc1)NC(=O)[C@H](CCCCN)NC(=O)[C@H](CO)NC(=O)[C@H](Cc1ccc(O)cc1)NC(=O)[C@H](CC(=O)O)NC(=O)[C@H](CO)NC(=O)[C@@H](NC(=O)[C@H](Cc1ccccc1)NC(=O)[C@@H](NC(=O)CNC(=O)[C@H](CCC(N)=O)NC(=O)C(C)(C)NC(=O)[C@@H](N)Cc1c[nH]cn1)[C@@H](C)O)[C@@H](C)O)C(=O)N[C@@H](C)C(=O)N[C@@H](Cc1c[nH]c2ccccc12)C(=O)N[C@@H](CC(C)C)C(=O)N[C@@H](CCC(=O)O)C(=O)N[C@@H](C)C(=O)NCC(=O)NCC(N)=O [dgc006] (H-H[Aib]QGTFTSDYSKYLEERAAK([AEEA-AEEA-γGlu-C18 diacid])EFIAWLEAGG-NH2; N-terminus assumed)
0.955	4.13	CCCCCCCCCCCCCCCC(=O)N[C@@H](CCC(=O)NCCOCCOCC(=O)NCCOCCOCC(=O)NCCCC[C@H](NC(=O)[C@H](C)NC(=O)[C@H](C)NC(=O)[C@H](CCCNC(=N)N)NC(=O)[C@H](CCC(=O)O)NC(=O)[C@H](CCC(=O)O)NC(=O)[C@H](CC(C)C)NC(=O)[C@H](Cc1ccc(O)cc1)NC(=O)[C@H](CCCCN)NC(=O)[C@H](CO)NC(=O)[C@H](Cc1ccc(O)cc1)NC(=O)[C@H](CC(=O)O)NC(=O)[C@H](CO)NC(=O)[C@@H](NC(=O)[C@H](Cc1ccccc1)NC(=O)[C@@H](NC(=O)CNC(=O)[C@H](CCC(N)=O)NC(=O)C(C)(C)NC(=O)[C@@H](N)Cc1c[nH]cn1)[C@@H](C)O)[C@@H](C)O)C(=O)N[C@@H](CCC(=O)O)C(=O)N[C@@H](Cc1ccccc1)C(=O)N[C@H](C(=O)N[C@@H](C)C(=O)N[C@@H](Cc1c[nH]c2ccccc12)C(=O)N[C@@H](CC(C)C)C(=O)N[C@@H](CCC(=O)O)C(=O)N[C@@H](C)C(=O)NCC(=O)NCC(N)=O)[C@@H](C)CC)C(=O)O [dgc011] (H-H[Aib]QGTFTSDYSKYLEERAAK([AEEA-AEEA-γGlu-Palmitoyl])EFIAWLEAGG-NH2; N-terminus assumed)
0.382	3.93	CCCCCCCCCCCCCCCC(=O)N[C@@H](CCC(=O)NCCOCCOCC(=O)NCCOCCOCC(=O)NCCCC[C@H](NC(=O)[C@H](C)NC(=O)[C@H](C)NC(=O)[C@H](CCCNC(=N)N)NC(=O)[C@H](CCC(=O)O)NC(=O)[C@H](CCC(=O)O)NC(=O)[C@H](CC(C)C)NC(=O)[C@H](Cc1ccc(O)cc1)NC(=O)[C@H](CCCCN)NC(=O)[C@H](CO)NC(=O)[C@H](Cc1ccc(O)cc1)NC(=O)[C@H](CC(=O)O)NC(=O)[C@H](CO)NC(=O)[C@@H](NC(=O)[C@H](Cc1ccccc1)NC(=O)[C@@H](NC(=O)CNC(=O)[C@H](CCC(N)=O)NC(=O)C(C)(C)NC(=O)[C@@H](N)Cc1c[nH]cn1)[C@@H](C)O)[C@@H](C)O)C(=O)N[C@@H](CCC(=O)O)C(=O)N[C@@H](Cc1ccccc1)C(=O)N[C@H](C(=O)N[C@@H](C)C(=O)N[C@@H](Cc1c[nH]c2ccccc12)C(=O)N[C@@H](CC(C)C)C(=O)N[C@@H](CCC(=O)O)C(=O)NCC(=O)N[C@@H](CCC(=O)O)C(=O)NCC(N)=O)[C@@H](C)CC)C(=O)O [dgc021] (H-H[Aib]QGTFTSDYSKYLEERAAK([AEEA-AEEA-γGlu-Palmitoyl])EFIAWLEGEG-NH2; N-terminus assumed)
0.792	1.83	CCCCCCCCCCCCCCCC(=O)N[C@@H](CCC(=O)NCCCC[C@H](NC(=O)[C@H](C)NC(=O)[C@H](C)NC(=O)[C@H](CCCNC(=N)N)NC(=O)[C@H](CCC(=O)O)NC(=O)[C@H](CCC(=O)O)NC(=O)[C@H](CC(C)C)NC(=O)[C@H](Cc1ccc(O)cc1)NC(=O)[C@H](CCCCN)NC(=O)[C@H](CO)NC(=O)[C@H](Cc1ccc(O)cc1)NC(=O)[C@H](CC(=O)O)NC(=O)[C@H](CO)NC(=O)[C@@H](NC(=O)[C@H](Cc1ccccc1)NC(=O)[C@@H](NC(=O)CNC(=O)[C@H](CCC(N)=O)NC(=O)C(C)(C)NC(=O)[C@@H](N)Cc1c[nH]cn1)[C@@H](C)O)[C@@H](C)O)C(=O)N[C@@H](CCC(=O)O)C(=O)N[C@@H](Cc1ccccc1)C(=O)N[C@H](C(=O)N[C@@H](C)C(=O)N[C@@H](Cc1c[nH]c2ccccc12)C(=O)N[C@@H](CC(C)C)C(=O)N[C@@H](CCC(=O)O)C(=O)NCC(=O)N[C@@H](CCC(=O)O)C(=O)NCC(N)=O)[C@@H](C)CC)C(=O)O [dgc019] (HELM PEPTIDE1{H.[Aib].Q.G.T.F.T.S.D.Y.S.K.Y.L.E.E.R.A.A.K.E.F.I.A.W.L.E.G.E.G.[am]}|PEPTIDE2{[CCCCCCCCCCCCCCCC(=O)[*:2]].[gGlu]}$PEPTIDE1,PEPTIDE2,20:R3-2:R2$$$V2.0; N-terminus assumed)
0.516	0.821	CCCCCCCCCCCCCCCC(=O)N[C@@H](CCC(=O)NCCCC[C@H](NC(=O)[C@H](C)NC(=O)[C@H](C)NC(=O)[C@H](CCCNC(=N)N)NC(=O)[C@H](CCC(=O)O)NC(=O)[C@H](CC(=O)O)NC(=O)[C@H](CC(C)C)NC(=O)[C@H](Cc1ccc(O)cc1)NC(=O)[C@H](CCCCN)NC(=O)[C@H](CO)NC(=O)[C@H](Cc1ccc(O)cc1)NC(=O)[C@H](CC(=O)O)NC(=O)[C@H](CO)NC(=O)[C@@H](NC(=O)[C@H](Cc1ccccc1)NC(=O)[C@@H](NC(=O)CNC(=O)[C@H](CCC(N)=O)NC(=O)C(C)(C)NC(=O)[C@@H](N)Cc1c[nH]cn1)[C@@H](C)O)[C@@H](C)O)C(=O)N[C@@H](CCC(=O)O)C(=O)N[C@@H](Cc1ccccc1)C(=O)N[C@H](C(=O)N[C@@H](C)C(=O)N[C@@H](Cc1c[nH]c2ccccc12)C(=O)N[C@@H](CC(C)C)C(=O)N[C@@H](CCC(=O)O)C(=O)NCC(=O)NCC(N)=O)[C@@H](C)CC)C(=O)O [dgc014] (HELM PEPTIDE1{H.[Aib].Q.G.T.F.T.S.D.Y.S.K.Y.L.D.E.R.A.A.K.E.F.I.A.W.L.E.G.G.[am]}|PEPTIDE2{[CCCCCCCCCCCCCCCC(=O)[*:2]].[gGlu]}$PEPTIDE1,PEPTIDE2,20:R3-2:R2$$$V2.0; N-terminus assumed)
0.899	1.53	CCCCCCCCCCCCCCCC(=O)N[C@@H](CCC(=O)NCCCC[C@H](NC(=O)[C@H](C)NC(=O)[C@H](C)NC(=O)[C@H](CCCNC(=N)N)NC(=O)[C@H](CCC(=O)O)NC(=O)[C@H](CCC(=O)O)NC(=O)[C@H](CC(C)C)NC(=O)[C@H](Cc1ccc(O)cc1)NC(=O)[C@H](CCCCN)NC(=O)[C@H](CO)NC(=O)[C@H](Cc1ccc(O)cc1)NC(=O)[C@H](CC(=O)O)NC(=O)[C@H](CO)NC(=O)[C@@H](NC(=O)[C@H](Cc1ccccc1)NC(=O)[C@@H](NC(=O)CNC(=O)[C@H](CCC(N)=O)NC(=O)C(C)(C)NC(=O)[C@@H](N)Cc1c[nH]cn1)[C@@H](C)O)[C@@H](C)O)C(=O)N[C@@H](CCC(=O)O)C(=O)N[C@@H](Cc1ccccc1)C(=O)N[C@H](C(=O)N[C@@H](C)C(=O)N[C@@H](Cc1c[nH]c2ccccc12)C(=O)N[C@@H](CC(C)C)C(=O)N[C@@H](CCC(=O)O)C(=O)NCC(=O)NCC(N)=O)[C@@H](C)CC)C(=O)O [dgc015] (HELM PEPTIDE1{H.[Aib].Q.G.T.F.T.S.D.Y.S.K.Y.L.E.E.R.A.A.K.E.F.I.A.W.L.E.G.G.[am]}|PEPTIDE2{[CCCCCCCCCCCCCCCC(=O)[*:2]].[gGlu]}$PEPTIDE1,PEPTIDE2,20:R3-2:R2$$$V2.0; N-terminus assumed)
0.28	0.971	CCCCCCCCCCCCCCCC(=O)N[C@@H](CCC(=O)NCCCC[C@H](NC(=O)[C@H](C)NC(=O)[C@H](C)NC(=O)[C@H](CCCNC(=N)N)NC(=O)[C@H](CCC(=O)O)NC(=O)[C@H](CC(=O)O)NC(=O)[C@H](CC(C)C)NC(=O)[C@H](Cc1ccc(O)cc1)NC(=O)[C@H](CCCCN)NC(=O)[C@H](CO)NC(=O)[C@H](Cc1ccc(O)cc1)NC(=O)[C@H](CC(=O)O)NC(=O)[C@H](CO)NC(=O)[C@@H](NC(=O)[C@H](Cc1ccccc1)NC(=O)[C@@H](NC(=O)CNC(=O)[C@H](CCC(N)=O)NC(=O)C(C)(C)NC(=O)[C@@H](N)Cc1c[nH]cn1)[C@@H](C)O)[C@@H](C)O)C(=O)N[C@@H](CCC(=O)O)C(=O)N[C@@H](Cc1ccccc1)C(=O)N[C@H](C(=O)N[C@@H](C)C(=O)N[C@@H](Cc1c[nH]c2ccccc12)C(=O)N[C@@H](CC(C)C)C(=O)N[C@@H](CCC(=O)O)C(=O)N[C@@H](CO)C(=O)NCC(=O)NCC(N)=O)[C@@H](C)CC)C(=O)O [dgc007] (HELM PEPTIDE1{H.[Aib].Q.G.T.F.T.S.D.Y.S.K.Y.L.D.E.R.A.A.K.E.F.I.A.W.L.E.S.G.G.[am]}|PEPTIDE2{[CCCCCCCCCCCCCCCC(=O)[*:2]].[gGlu]}$PEPTIDE1,PEPTIDE2,20:R3-2:R2$$$V2.0; N-terminus assumed)
